This note sets out measurements from publication PMC5727842, “Antioxidant and Antidiabetic Effects of Flavonoids: A Structure-Activity Relationship Based Study” (BioMed Research International, 2017).

pIC50: −log10 of the molar value. In brackets after ≈: the same amount, converted by molar mass.

Test [1] deals with α-glucosidase from Saccharomyces cerevisiae. In words: α-Glucosidase inhibitory assay. The class given is biochemical. The conditions noted are these: Table 3; mean ± SEM (n = 3); NA: not active. As for the experimental part: α-Glucosidase inhibitory activity of the flavonoids was carried out according to the standard method with minor modification. […] A solution of 30 mM phosphate buffer (pH 6.5) was used to prepare stock solution of the sample to form a final concentration of 160 μg/mL. Then, 10 μL/well of sample was mixed with 15 μL/well of α-glucosidase from Saccharomyces cerevisiae (Megazyme, Ireland). 50 mM buffer (pH 6.5) was used to prepare the enzyme solution. Then, 115 μL/well of 30 mM buffer (pH 6.5) was added and incubated for 5 min at room temperature. Then, 75 μL/well of PNP-glucoside was added to initiate reaction and incubated at room temperature for 15 min. Finally, about 50 μL glycine at pH 10 was added to stop the reaction. The final volume of 250 μL of compound, positive control, enzyme, 30 mM buffer, and substrate was located in 96-well microplate. The absorbance (Abs) was measured using microplate reader (Tecan NanoQuant Infinite M200, Switzerland) at 405 nm to represent the amount of p-nitrophenol released from PNP-glucoside. […] The equation given below was used to calculate the inhibitory activity (%):(4) Inhibitory activity%=Abs control−Abs sample/Abs control×100%.
Tested on yeast α-glycosidase, the reaction is initiated by reacting the inhibitor (sample) with the α-glycosidase enzyme that competes with […] for the binding site, thus releasing ρ-nitrophenol which was measured in the assay.

Test [2] is described as follows: Rapid screening of radical scavenging activity by dot blot assay (DPPH staining). The note with it: silica sheet stained with DPPH in MeOH, dilutions from 1000 μg/mL. As for the experimental part:
An aliquot (20 μL) of each dilution of each group was carefully loaded on a […] TLC plate and allowed to dry for 10 min. Drops of each sample were loaded in the order of decreased concentration along the 16 columns. The staining of the silica plate was based on the procedure of Soler-Rivas et al.. […] The intensity of the yellow color depends upon the amount and nature of radical scavenger present in the flavonoids.
Background: The DPPH test is a chemical assay of radical scavenging.

Test [3] in a line: ABTS+ radical scavenging assay. The note with it: 734 nm, mean ± SEM (n = 3). As for the experimental part:
An improved ABTS^+ radical decolorization assay was carried out involving direct production of the blue/green ABTS^+ chromophore through the reaction between ABTS and potassium persulfate. Addition of antioxidant to the preformed radical cation reduces it to ABTS to an extent on a time scale depending on the antioxidant activity, the concentration of the antioxidant, and the duration of the reaction. 1 ml ABTS was dissolved in water to make 7 mM concentration of the resultant solution. […] The resultant reaction mixture was allowed to stand in the dark at room temperature for 12–16 h before being used. The ABTS^+ radical solution was diluted with MeOH to an absorbance of 0.7 (±0.02) at 734 nm. Then, 100 μl of sample at various concentrations (1000–0.4889 μg/mL) was mixed with 100 μL of diluted ABTS^+ radical. Each concentration was analyzed in triplicate and the percentage decrease of absorbance at 734 nm with a microplate reader (Tecan NanoQuant Infinite M200, Switzerland) was calculated for each point and the antioxidant capacity of the tested compounds was expressed as percent inhibition (%). The radical scavenging activity of the compounds was measured according to the following equation [29]:(2) % inhibition=Acontrol−Asample/Acontrol×100. IC50 values were calculated by linear regression of plots, and the average percent of scavenging capacity was taken from three replicates. Trolox was used as a standard in comparison for the determination of the antioxidant activity of the flavonoids.

The target of the next test is T1, DPP-4 (Homo sapiens, UniProt P27487).
T1 construct: purchased Cayman (Michigan, USA)
In words: Dipeptidyl peptidase IV (DPP-4) inhibitory assay. It is filed as biochemical. The note with it: Table 3; mean ± SEM (n = 3); NA: not active. As for the experimental part:
Dipeptidyl peptidase (IV) inhibitors work by inhibiting the action of this enzyme, thereby prolonging the activity of incretins that play an important role in insulin secretion and blood glucose control regulation. DPP-4 inhibitory assay was performed as per the standard method (Cayman, USA). Firstly, 1 mg of sample was dissolved in 10% of DMSO and MeOH as the stock solution. For initial activity (100%), 10 μL of MeOH, 30 μL of diluted assay buffer, and 10 μL of diluted DPP-4 (Cayman, USA) were added to 96-well microplate. […] For background well, 10 μL of MeOH and 40 μL of diluted assay buffer were added. Then, 10 μL of prepared sample and 30 μL of diluted assay buffer were added with 10 μL of diluted DPP-4. After that, 50 μL of substrate solution was added to all wells to initiate the reaction and further incubated in the dark at 37°C for 30 min. Finally, plate was read at 360 nm of excitation wavelength and 465 nm of emission wavelength using fluorescence microplate reader (Perkin Elmer, Germany). All determinations were done in triplicate and half maximal concentration (IC50) values were calculated from the percentage of inhibition based on the linear regression analysis. The equation given below was applied to calculate the inhibitory activity (%):(5) Inhibitory activity%=Initial Activity−Sample/Initial Activity×100%.
For DPP-4 inhibitory assay, the reaction is based on the cleavage of the peptide bond by DPP releasing the free Gly-Pro-aminomethylcoumarin group, a fluorogenic substrate resulting in fluorescence excitation and emission.

Test [4] is described as follows: DPPH radical scavenging assay. The conditions noted are these: 30 min, 517 nm, mean ± SEM (n = 3). The procedure: Each sample's stock solution was diluted to final concentrations of 1000–0.4889 μg/mL in MeOH. A total of 1 mL of a 0.3 mM DPPH methanolic solution was added to 2.5 mL of sample solution of different concentrations and allowed to react at room temperature. After 30 min, the absorbance (Abs) values were measured at 517 nm with a microplate reader (Tecan NanoQuant Infinite M200, Switzerland) and converted into the percentage antioxidant activity using the following equation described previously: (1) % antioxidant activity=100−Abssample−Abssample blank/Abscontrol−Abscontrol blank×100. MeOH + compound solution was used as a blank, while DPPH solution plus MeOH was used as a negative control. The positive controls were DPPH solution plus 1 mM ascorbic acid. The IC50 values were calculated by linear regression of plots. The average percent of scavenging capacity was taken from three replicates.

T1 sequence (P27487 whole entry): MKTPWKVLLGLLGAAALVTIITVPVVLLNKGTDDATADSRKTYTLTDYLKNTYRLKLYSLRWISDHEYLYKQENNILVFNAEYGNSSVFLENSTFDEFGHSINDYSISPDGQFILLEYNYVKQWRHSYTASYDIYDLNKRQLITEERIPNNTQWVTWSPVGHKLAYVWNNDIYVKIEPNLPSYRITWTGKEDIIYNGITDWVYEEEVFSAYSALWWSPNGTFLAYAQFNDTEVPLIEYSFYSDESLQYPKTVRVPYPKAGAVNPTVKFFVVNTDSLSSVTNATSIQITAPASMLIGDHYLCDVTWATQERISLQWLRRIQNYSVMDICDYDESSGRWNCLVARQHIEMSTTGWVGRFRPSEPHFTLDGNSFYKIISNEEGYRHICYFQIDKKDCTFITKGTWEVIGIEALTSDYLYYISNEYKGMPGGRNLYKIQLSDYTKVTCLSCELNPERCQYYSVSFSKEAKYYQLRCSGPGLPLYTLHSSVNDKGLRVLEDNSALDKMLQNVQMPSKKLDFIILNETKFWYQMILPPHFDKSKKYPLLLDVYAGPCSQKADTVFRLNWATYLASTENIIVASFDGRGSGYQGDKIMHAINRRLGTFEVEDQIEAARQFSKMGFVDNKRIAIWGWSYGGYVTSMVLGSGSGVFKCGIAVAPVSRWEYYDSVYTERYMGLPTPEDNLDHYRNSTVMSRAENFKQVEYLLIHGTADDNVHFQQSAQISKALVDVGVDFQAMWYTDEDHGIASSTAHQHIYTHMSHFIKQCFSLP

As usually defined, the pIC50 is the negative decadic logarithm of the IC50, by convention in mol/L. Read a low pIC50 as a high IC50. As to `O=c1cc(-c2ccc(O)c(O)c2)oc2c(O)c(O)cc(O)c12` [Hypolaetin, 3′,4′,5,7,8-Pentahydroxyflavone], in test [1], the “IC50 α-Glucosidase” value was 48.42 ± 9.71 µg/mL (≈ 160 µM). For the same compound, the “radical scavenging activity by dot blot (intensity of yellow spots)” value in test [2] is recorded as “strong radical scavenging activity”. For the same compound, the “IC50 ABTS+” value in test [3] is on record as 0.80 ± 0.03^FG µg/ml. For the same compound, at DPP-4, the pIC50 is 3.94. Besides, the “IC50 DPPH” value in test [4] is 3.69 ± 0.11^Ha µg/ml.
With `COc1cc(O)c2c(=O)cc(-c3ccccc3)oc2c1` [Techtochrysin, 5-Hydroxy-7-methoxyflavone], the “IC50 α-Glucosidase” value in test [1] is >100^A µg/mg. In test [2], the “radical scavenging activity by dot blot (intensity of yellow spots)” value is “intermediate radical scavenging activity”. Besides, the “IC50 ABTS+” value in test [3] is reported as 45.59 ± 4.75^E µg/ml. Also, the pIC50 on DPP-4 is under 3.43. The “IC50 DPPH” value in test [4] is on record as >100^B µg/ml.
